We go through two molecules from patent US4526776A, “Cationic cyanato and thiocyanato complexes useful as radiodiagnostic agents” (E. I. du Pont de Nemours & Company, priority 1983, dated 1985).

In experiment [1] the test system is hepatobiliary transit (liver, gall bladder and gastro-intestinal tract). Kind of experiment: Visualization of hepatobiliary transit, sequential scintillation camera images after intravenous injection. As to conditions: rabbit, >1 mCi (Disofenin: at least 1 mCi). It counts as in vivo, rabbit (male New Zealand Albino). As for the experimental part:
A lyophylized vial of HEPATOLITE™ (New England Nuclear Corporation's brand of Technetium Tc99m Disofenin) is labelled with ^99m Tc-pertechnetate in accordance with manufacturer's directions. At least 1 mCi of the labelled preparation is injected intravenously into a 2.5 Kg male New Zealand Albino rabbit. The rabbit is positioned under a Searle Pho-Gamma scintallation camera in such a way that the liver and gastro-intestinal tract are within the field of view.
Greater than 1 mCi of the ^99m Tc-Thiocyanato-DMPE complex from either Example 1 or 2 is injected into a rabbit as in Example 3.

In a further experiment the test system is hepatobiliary transit. As to conditions: commercially available agent, species not stated; cited from earlier work.

For the molecule “^99m Tc-Thiocyanato - DMPE Complex [Example 2]”, in experiment [1], the “sequential images of hepatobiliary transit, passage and image quality” value was “rapid passage and comparable image quality of the liver, gall bladder and gastro-intestinal tract”; the “time to sequential images of hepatobiliary transit (liver, gall bladder and gastro-intestinal tract)” value was “about 10 minutes”.

As to `CC(C)c1cccc(C(C)C)c1NC(=O)CN(CC(=O)O)CC(=O)O.[99Tc]` [Disofenin, Technetium Tc99m Disofenin, reference compound], in experiment [1], the “sequential images of hepatobiliary transit, passage and image quality” value was “initial liver uptake with gradual visualization of the gall bladder and gastro-intestinal tract, analogous to the diagnostically efficacious results obtained in clinical studies of normal healthy humans”; the “time to sequential images of hepatobiliary transit (liver, gall bladder and gastro-intestinal tract)” value is “about 30 minutes”. Besides, in the experiment with hepatobiliary transit, the “time to obtain an image of the hepatobiliary transit” value is at most 30 min.
